The results in this text go back to patent publication US5242929A, “Derivatives of substituted imidazol-2-one and process for their preparation” (Farmitalia Carlo Erba S.r.l., priority 1991, dated 1993).

Each structure is given as a SMILES string. Read-outs that look alike come from different tables or passages of the source.

For assay [1], the target named is T1, 5HT3 receptor (Rattus norvegicus, UniProt P35563).
T1 sequence (P35563 24-483): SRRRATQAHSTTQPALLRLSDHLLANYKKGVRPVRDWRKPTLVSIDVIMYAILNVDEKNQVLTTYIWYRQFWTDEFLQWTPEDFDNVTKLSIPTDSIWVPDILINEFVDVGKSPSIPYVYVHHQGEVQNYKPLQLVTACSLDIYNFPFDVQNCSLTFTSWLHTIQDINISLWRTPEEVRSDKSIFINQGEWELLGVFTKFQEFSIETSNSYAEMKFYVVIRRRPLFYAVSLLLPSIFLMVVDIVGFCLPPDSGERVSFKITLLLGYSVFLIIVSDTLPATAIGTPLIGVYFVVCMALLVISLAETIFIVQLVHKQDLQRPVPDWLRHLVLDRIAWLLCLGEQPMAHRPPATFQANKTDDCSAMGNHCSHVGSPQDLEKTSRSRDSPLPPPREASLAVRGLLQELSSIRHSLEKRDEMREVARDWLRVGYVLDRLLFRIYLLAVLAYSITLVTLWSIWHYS
As to the kind of experiment: inhibition of the binding of ^3 H-GR65630 in rat entorhinal cortex. To be noted: for binding model / interaction with 5-HT3 receptors: entorhinal cortex of the rat brain, ^3 H-GR 65630. Further details: labeled in the entorhinal cortex of the rat brain; from tissue; host or cells: rat entorhinal cortex.

Assay [2] has as its target T1, 5HT3 receptor. As to the kind of experiment: von Bezold-Jarisch chemoreflex evoked by 5-HT in the anesthetised rat. In kind it is in vivo. More on the design: chemoreflex evoked by 5-HT in the anesthetised rat; from tissue; host or cells: whole living anesthetised rat, endogenous receptor (vagal afferents by own knowledge). To be noted: 5-HT 20 μg/kg i.v., anesthetized rat; for % inhibition of the Bezold-Jarisch reflex: mean ± S.E.M. from 6 animals, *p < 0.01 vs controls (Dunnett's test). The method, then:
Pharmacol. 326, 36-44 (1984).
The following Table I reports the in vivo 5HT3 antagonist activity data obtained in this test for the representative compound of the invention 1-(1-azabicyclo[2.2.2]oct-3 yl)-3-(3-chlorophenyl)-imidazolidin-2-one (internal code FCE 26778).
Inhibition of the Bezold-Jarisch reflex elicited by 5-HT
(20 μg/kg i.v.) by i.v. FCE 26778 in the anesthetized rat.
Values are mean ± S.E.M. from 6 animals

`O=C1N(c2cccc(Cl)c2)CCN1C1CN2CCC1CC2` (centres unmarked) [FCE 26778, 1-(1-azabicyclo[2.2.2]oct-3 yl)-3-(3-chlorophenyl)-imidazolidin-2-one]: the Ki (usually a measure of affinity in units of concentration, obtained from inhibition or displacement) worked out at 0.00442 µM in assay [1] and 1.1 µM in assay [1] ([^3 H]GR 65630 labelled 5HT3 sites, rat entorhinal cortex, two site fitting, low affinity, read-out: Ki low). Moreover, in assay [1], the “binding model / interaction with 5-HT3 receptors” value (shortened to “binding model / interaction”) is given as “interacted according to a two site non-linear fitting model”. The figures for the “% inhibition of the Bezold-Jarisch reflex” value in assay [2] (30 μg/kg i.v.), in assay [2] (100 μg/kg i.v.) and in assay [2] (300 μg/kg i.v.) were 26.66 ± 5.25%, 59.57 ± 5.87% and 81.33 ± 3.32%, respectively. In addition, the ED50 (in general, the dose at which the effect has come halfway, by size or by number of responders) in assay [2] (iv, limits 54.50-98.39) was 0.0749 mg/kg.

On to `CN1C2CCC1CC(OC(=O)c1cc(Cl)cc(Cl)c1)C2` (centres unmarked) [MDL 72222], for which, in assay [1], the affinity, expressed as Ki, was 0.0255 µM and the “binding model / interaction” value was “displaced ^3 H-GR 65630 according to one site non-linear fitting”.

In the case of `CCN(CC)CCNC(=O)c1cc(Cl)c(N)cc1OC` [Metoclopramide], in assay [1], the Ki worked out at 0.547 µM and the “binding model / interaction” value is recorded as “displaced ^3 H-GR 65630 according to one site non-linear fitting”.
